Assay results published in PubChem BioAssay AID488890 (Southern Research Specialized Biocontainment Screening …, 2010).
Records with an inconclusive call do not appear. Active and inactive are the calls of the source. How the calls were made is not given here.

What follows are compounds tested on Mycobacterium tuberculosis non-replicating, growth inhibition (assay: growth inhibition of non-replicating M. tuberculosis (AID 488890)).
`O=C(CCS(=O)(=O)Cc1ccccc1)Nc1ncc([N+](=O)[O-])s1` showed an IC50 of 1.97 µM.
`CCOC(=O)Cc1csc(NC(=O)c2c(O)c3ccccc3n(CCC(C)C)c2=O)n1` was tested, and the IC50 was 1.77 µM.
For `O=C(CNc1cccc2ccccc12)N/N=C/c1ccc([N+](=O)[O-])o1`, the IC50 was 12.1 µM (inactive).
With `Cc1ccc(CC(=O)Nc2ccc(Cl)cn2)cc1` the IC50 was 1.06 µM.
With `Cc1ccsc1C(=O)OCC(=O)Nc1nnc(-c2ccccc2)o1` the IC50 was 18.2 µM (inactive).
`Oc1ccccc1/C=N/Nc1nc2ccccc2o1` showed an IC50 of 0.19 µM.
For `Cn1c(/C=C/c2ccc([N+](=O)[O-])o2)nc2ccccc2c1=O`, the IC50 was under 0.1 µM.
`COc1ccc2c(c1)C(=C(C#N)C#N)C(=O)N2CCc1ccccc1` was tested, and the IC50 was 25 µM (inactive).
`CCCCn1c(O)c(/C=C2/C=CC=N2)c(=O)[nH]c1=O` showed an IC50 of 1.17 µM.
Work on `O=C(Nc1ncc([N+](=O)[O-])s1)c1ccc2c(c1)OCO2` yielded an IC50 of 4.75 µM.
`CC(NC(=O)c1cc2cc(Br)ccc2oc1=N)c1ccccc1` (stereo not given) gave an IC50 of 6.97 µM.
In the case of `Cc1cc(C)n(-c2ccc(C(=O)Oc3ccc4c(c3)OCO4)cc2)n1`, the IC50 is reported as 11.9 µM (inactive).
For `COc1ccc(C(=O)NCC(=O)N/N=C/c2ccc([N+](=O)[O-])o2)cc1OC`, the IC50 was 4.97 µM.
Compound `O=C(c1ccc([N+](=O)[O-])o1)N1CCN(Cc2ccccc2)CC1` has an IC50 of 2.81 µM.
`O=C(N/N=C/c1ccccn1)c1ccccc1` was tested, and the IC50 was 14.6 µM (inactive).
In the case of `Cc1cc(Nc2ccccc2)n(-c2nc3ccccc3[nH]2)n1`, the IC50 is reported as 3.88 µM.
With `Cc1cc(Cl)ccc1OC(C)C(=O)Nc1ccc([N+](=O)[O-])cn1` (stereo not given) the IC50 was 23.3 µM (inactive).
With `Cc1nc2ccccc2n1/N=C/c1ccc([N+](=O)[O-])s1` the IC50 was 0.32 µM.
`Cc1ccnc(NC(=O)CCc2c[nH]c3ccccc23)c1` showed an IC50 of 5.51 µM.
Work on `CCOC(=O)c1cc(-c2csc(COc3ccccc3Cl)n2)on1` yielded an IC50 of under 0.1 µM.
Work on `c1cncc(-c2noc(CC3CCCCC3)n2)c1` yielded an IC50 of 1.25 µM.
Work on `CC(/C=C/c1ccc2c(c1)OCO2)=N/NC(=O)C1COc2ccccc2O1` (stereo not given) yielded an IC50 of 4.54 µM.
For `CC(NC(=O)c1cc2ccccc2oc1=O)c1ccccc1` (stereo not given), the IC50 was 0.86 µM.
In the case of `CCCNC(=O)NC(=O)COc1ccc2oc3ccccc3c2c1`, the IC50 is reported as 5.09 µM.
With `CCOC(=O)C(=CNNc1cccc(Cl)c1)C(=O)OCC` the IC50 was 18.7 µM (inactive).
For `Oc1ccccc1CN1CCCC(N2CCN(c3cccc(C(F)(F)F)c3)CC2)C1` (stereo not given), the IC50 was 21.5 µM (inactive).
`CC(Cc1ccccc1Sc1ccccc1)N(C)C` (stereo not given) was tested, and the IC50 was 26 µM (inactive).
In the case of `Cc1cccc2nc(-c3cccnc3)c(NCCC(C)C)n12`, the IC50 is reported as 16.1 µM (inactive).
In the case of `O=C(c1cc([N+](=O)[O-])cc([N+](=O)[O-])c1)N(Cc1nnc(-c2ccccc2Cl)o1)C1CC1`, the IC50 is reported as 4.46 µM.
With `CC1CCc2c(sc3nc(CSc4ncn[nH]4)[nH]c(=O)c23)C1` (stereo not given) the IC50 was 14.4 µM (inactive).
Compound `O=C(N/N=C(\c1ccccc1)c1ccccn1)c1cccc([N+](=O)[O-])c1` has an IC50 of 1.93 µM.
`CC(C)(C)Sc1ccc2nc3c(n2c1)CCCC3` was tested, and the IC50 was 9.32 µM.
With `CCCCCn1c(=O)c(C(=O)Nc2nc3ccccc3[nH]2)c(O)c2ccccc21` the IC50 was 1.9 µM.
`COc1ccc(-c2noc(-c3cc4ccccc4oc3=O)n2)cc1` showed an IC50 of 5.06 µM.
For `Fc1ccc(-c2nnc(-c3ccc(F)cc3)o2)cc1`, the IC50 was 8.38 µM.
Work on `O=C(OCc1c(Cl)cccc1Cl)c1ccccn1` yielded an IC50 of 6.6 µM.
For `Cc1onc(-c2ccccc2Cl)c1C(=O)O/N=C(\N)c1ccc([N+](=O)[O-])o1`, the IC50 was 4.55 µM.
`Cc1onc(-c2c(F)cccc2Cl)c1C(=O)O/N=C(\N)c1ccc([N+](=O)[O-])o1` was tested, and the IC50 was 5.96 µM.
With `CC(C)=CCN1CCN(CCC2=C(C)CCCC2(C)C)CC1CCO` (stereo not given) the IC50 was 7.56 µM.
Work on `O=c1oc(/C=C/c2ccc([N+](=O)[O-])s2)nc2ccccc12` yielded an IC50 of 8.47 µM.
For `CCOc1ccc(/C=N/OCC(=O)Nc2ccc3c(c2)OCO3)cc1`, the IC50 was 5.11 µM.
`COCCSc1nnc(NC(=O)CCS(=O)(=O)Cc2ccccc2)s1` showed an IC50 of 5.14 µM.
Compound `O=[N+]([O-])c1c(Nc2ccccn2)cc(Cl)c2nonc12` has an IC50 of under 0.1 µM.
With `NC(=O)C1CCN(C2CC(=O)NC2=O)CC1` (stereo not given) the IC50 was 15.7 µM (inactive).
In the case of `O=C(OCC(=O)C12CC3CC(CC(C3)C1)C2)c1ccccn1`, the IC50 is reported as 9.38 µM.
Work on `COc1ccc(Cc2nnc(SCc3ccc([N+](=O)[O-])cc3)o2)cc1` yielded an IC50 of 3.16 µM.
For `CC1(C)CC(=O)c2cc(C(=O)NNc3ccccc3)c(=O)n(-c3ccccc3)c2C1`, the IC50 was 7.49 µM.
`O=C(OCC(=O)N1CCCCC1)c1cc2ccccc2cc1O` showed an IC50 of 5.84 µM.
For `O=C(N/N=C/c1ccc(O)cc1)c1cccc(C(F)(F)F)c1`, the IC50 was 16 µM (inactive).
`CC(C)OC(=O)c1cc(C(=O)c2cc(Cl)ccc2O)coc1=N` showed an IC50 of 4.66 µM.
Work on `CCCNC(=O)OCC12CC3CC(CC(C3)C1)C2` yielded an IC50 of 0.65 µM.
With `Cc1ccc(NC(=O)CC2SC3=NCCCN3C2=O)c(C)c1` (stereo not given) the IC50 was 18.8 µM (inactive).
In the case of `O=C(COc1ccccc1)Nc1nnc(-c2ccc(Cl)cc2)o1`, the IC50 is reported as 21.9 µM (inactive).
Work on `O=C(Nc1nc(-c2cccs2)cs1)c1ccc([N+](=O)[O-])o1` yielded an IC50 of 2.08 µM.
Work on `COc1cccc(C(=O)OCC(=O)c2ccc(Br)s2)c1OC` yielded an IC50 of 9.02 µM.
Work on `O=C(COc1ccc(-c2ccccc2)cc1)Nc1cccnc1` yielded an IC50 of 3.28 µM.
For `Nn1c(SCCOc2ccc(Cl)cc2)nnc1-c1cccnc1`, the IC50 was 23.5 µM (inactive).
In the case of `Cc1cc(N2CCC(C)CC2)nc(NCc2ccccc2)n1`, the IC50 is reported as 16.4 µM (inactive).
In the case of `CC1CCC/C(=C\Nc2ccc(C(=O)O)c(O)c2)C1=O` (stereo not given), the IC50 is reported as under 0.1 µM.
In the case of `CC(C)(C)OC(=O)N/N=C\c1ccc([N+](=O)[O-])s1`, the IC50 is reported as 13.6 µM (inactive).
Compound `CC1(C)CC(=O)C2=C(C1)OC(N)=C(C#N)C2C#Cc1ccccc1` (stereo not given) has an IC50 of 4.07 µM.
With `Cc1ccccc1Nc1c(-c2ccccn2)nc2ccccn12` the IC50 was 13.9 µM (inactive).
`CC(=O)Nc1ccc(NC(=O)c2cc([N+](=O)[O-])cc([N+](=O)[O-])c2)cc1` showed an IC50 of 8.92 µM.
For `CCOc1cc(CNC(C)(C)CO)cc(Br)c1OCc1ccc(Cl)cc1Cl`, the IC50 was 10.8 µM (inactive).
With `O=C(c1ccccc1)c1nc[nH]c1C(=O)Nc1ccccc1` the IC50 was 11.5 µM (inactive).
In the case of `O=C(COC(=O)COc1ccc(Nc2ccccc2)cc1)NCc1ccco1`, the IC50 is reported as 10.3 µM (inactive).
`CCn1cc(C(=O)NC(C)C23CC4CC(CC(C4)C2)C3)cn1` (stereo not given) gave an IC50 of 2.73 µM.
In the case of `O=C(COc1ccc(F)cc1)Nc1ccc2c(c1)OCCO2`, the IC50 is reported as 6.38 µM.
`O=C(COC(=O)CCc1c[nH]c2ccccc12)Nc1cc([N+](=O)[O-])ccc1Cl` showed an IC50 of 3.17 µM.
Work on `COC(=O)COc1ccc2c(=O)c(-c3ccccc3)coc2c1` yielded an IC50 of under 0.1 µM.
With `COc1cc(CNC(C)(C)CO)cc(Br)c1OCc1ccc(Cl)cc1Cl` the IC50 was 10 µM (inactive).
Work on `Cc1ccc(/C=C2\SC(N3CCCC3)=NC2=O)cc1` yielded an IC50 of 6.15 µM.
In the case of `O=C(N/N=C/c1ccc([N+](=O)[O-])s1)c1ccncc1`, the IC50 is reported as 1.77 µM.
`Cc1ccc(NC(CC(=O)c2ccccc2)C(=O)O)cc1Cl` (stereo not given) showed an IC50 of 8.32 µM.
Compound `Cc1cc2nc(/N=C(\N)NC(=O)C(C)C)nc(C)c2cc1C` has an IC50 of 3.1 µM.
`NC(N)=N/N=C/c1cn(-c2ccccc2)nc1-c1cccs1` gave an IC50 of 6.07 µM.
For `Nc1ncnc(Oc2cccc3cccnc23)c1[N+](=O)[O-]`, the IC50 was 4.36 µM.
`Cc1n[nH]c(C)c1CCOc1ccc(C(C)C)cc1` was tested, and the IC50 was 19.5 µM (inactive).
`CC1=NNC(=O)/C1=C\c1cn(-c2ccccc2)nc1-c1cccs1` gave an IC50 of 4.96 µM.
`COc1ccc(OC(=O)c2cc3cc(Cl)ccc3oc2=O)cc1` was tested, and the IC50 was 10.1 µM (inactive).
`c1ccc(C2=Nc3ccccc3OC2)cc1` was tested, and the IC50 was 4.54 µM.
`c1ccc(Nc2nc(-c3ccccn3)cs2)cc1` gave an IC50 of 2.66 µM.
With `Cc1ccc(S(=O)(=O)N2CCC(C(=O)OCc3ccccc3)CC2)cc1C` the IC50 was 9.82 µM.
Compound `COC(=O)c1cc(/C=C/c2ccccc2)on1` has an IC50 of 2.18 µM.
With `Fc1cccc2sc(N3CCCC3)nc12` the IC50 was 23.1 µM (inactive).
`c1ccc(C[C@H]2CNCCN2CCCCC2CCCCC2)cc1` was tested, and the IC50 was 17.7 µM (inactive).
`Cc1nnc(-c2ccccc2)c(=O)n1/N=C/c1c(O)ccc2ccccc12` gave an IC50 of 1.31 µM.
`COc1ccc(OC(=O)C2CC(=O)N(c3ccc(C)cc3)C2)cc1` (stereo not given) was tested, and the IC50 was 9.65 µM.
For `Cc1ccc(/C=N/NC(=O)c2ccncc2)o1`, the IC50 was 2.07 µM.
`C=CCn1c(=O)c(C(=O)Nc2cccnc2)c(O)c2ccccc21` gave an IC50 of 7.58 µM.
Work on `CCOc1ccc(N2CC(=O)Nc3ccccc3NCC2=O)cc1` yielded an IC50 of 3.98 µM.
Compound `NC(=O)c1ccc(-c2ccc(Br)cc2)o1` has an IC50 of 1.93 µM.
`CCCCn1c(=O)c(C(=O)Nc2nnc(C(C)C)s2)c(O)c2ccccc21` was tested, and the IC50 was 1.87 µM.
`O=C(Nc1ccc(S(=O)(=O)N2CCOCC2)cc1)c1ccc([N+](=O)[O-])o1` was tested, and the IC50 was 5.29 µM.
`CCOC(=O)COc1cc(O)c2c(=O)cc(-c3ccccc3)oc2c1` gave an IC50 of 0.44 µM.
Compound `COc1cccc2cc(-c3nc4ccccc4o3)c(=O)oc12` has an IC50 of 7.31 µM.
`O=C(Nc1nc2c(Cl)cccc2s1)c1ccc([N+](=O)[O-])o1` gave an IC50 of 1.56 µM.
With `CCN(CC)Cc1ccc(NC(=O)c2sc3cc(Cl)ccc3c2Cl)cc1` the IC50 was 11.2 µM (inactive).
Compound `Cc1[nH]n(S(=O)(=O)Cc2ccccc2)c(=O)c1N=Nc1ccccc1Cl` has an IC50 of 4.72 µM.
With `COc1cccc(C(=O)OCn2nnc3ccccc3c2=O)c1OC` the IC50 was 19 µM (inactive).
With `COc1cccc(C(=O)OCC(=O)Nc2nnc(-c3ccccc3)o2)c1` the IC50 was 22.8 µM (inactive).
With `O=C(NNc1ccc([N+](=O)[O-])cc1)C1CC2CCCC(C1)C2=O` (stereo not given) the IC50 was 16.2 µM (inactive).
Work on `N#Cc1ccc(-c2ccc(OCC(=O)Nc3cccnc3)cc2)cc1` yielded an IC50 of 1.43 µM.
For `CSCCC(=O)N1CCCC(N2CCN(c3cccc(C(F)(F)F)c3)CC2)C1` (stereo not given), the IC50 was 34.4 µM (inactive).
`CC1=NN(C(=O)c2csc(C)c2)C(O)(C(F)(F)F)C1` (stereo not given) was tested, and the IC50 was 0.49 µM.
`COc1cc(/C=N/NC(=O)c2ccncc2)ccc1OC(=O)c1cccc(F)c1` showed an IC50 of 3.53 µM.
For `O=C(NCCCN1CCOCC1)c1ccc(CSc2ccc(Cl)cc2)cc1`, the IC50 was 29 µM (inactive).
`COc1ccccc1N1CCN(C(=O)c2ccc([N+](=O)[O-])s2)CC1` showed an IC50 of 5.97 µM.
`C=CCn1c(O)c(C2=c3ccccc3=NC2=O)c2ccccc21` gave an IC50 of 2.68 µM.
For `O=C(NC(=S)NCCc1ccccc1)c1ccccc1`, the IC50 was 10.4 µM (inactive).
For `Cc1ccc(C2=NN(C)c3nc4ccccc4n3C2)cc1`, the IC50 was 18.7 µM (inactive).
`COc1ccc(C(=O)Oc2cccc3cccnc23)cc1S(=O)(=O)N1CCOCC1` was tested, and the IC50 was 1.19 µM.
With `N#Cc1ccc(COC(=O)CCc2c[nH]c3ccccc23)cc1` the IC50 was 4.68 µM.
`COc1cc(N=c2ssnc2Cl)cc(OC)c1OC` was tested, and the IC50 was 17.9 µM (inactive).
With `COc1cc(CNCCNC(=O)c2nonc2N)ccc1OCc1ccc(Cl)cc1` the IC50 was 12.2 µM (inactive).
